Data set [1] relates to A2780 (ovarian) cancer cells. Kind of data set: MTT growth inhibition assay, A2780. Particulars: 72 h, ± standard error, read-out: Growth Inhibition Concentration, GI50. Type of data set: cell-based. The protocol: (§1) The Schiff bases and their organotin(IV) compounds were screened for in vitro cytotoxicity against a panel of 12 cancer cell lines: EJ-28 (muscle invasive bladder), RT-112 (minimum-invasive bladder), HT29 (colon), U87 and SJ-G2 (glioblastoma), MCF-7 (breast), A2780 (ovarian), H460 (lung), A431 (skin), DU145 (prostate), BE2-C (neuroblastoma), MIA (pancreatic) and one normal breast cell line (MCF-10A) using the MTT metabolic assay (Figure 6). After 72 h of incubation, a dose-dependent […] effect towards the cancer cell lines was measured at very low micromolar (µM) concentrations of the compounds. The growth inhibition concentration of the Schiff bases and their organotin(IV) compounds required to inhibit 50% cell proliferation relative to the cells that were treated with DMSO (control) are given in Table 2. The stability of these compounds was assessed in DMSO as well as in a mixture of DMSO-H2O. The absorbance obtained from UV-vis spectroscopy analysis was monitored for 72 h, and an unchanged pattern in the spectra was indicative that the compounds were stable in both the solvent systems tested.
(§2) For HT29 (colon), U87 and SJ-G2 (glioblastoma), MCF-7 (breast), A2780 (ovarian), H460 (lung), A431 (skin), Du145 (prostate), BE2-C (neuroblastoma), MIA (pancreas) cell lines and one normal breast cell line, MCF-10A (normal breast), the MTT assays were performed using the following method:
(§3) Stock solutions were prepared as follows and stored at −20 °C: Trial compounds were stored as 10 mM solutions in DMSO. All cell lines were cultured in a humidified atmosphere 5% CO2 at 37 °C. The cancer cell lines were maintained in Dulbecco’s modified Eagle’s medium (DMEM) (Trace Biosciences) supplemented with 10% foetal bovine serum, 10 mM sodium bicarbonate, penicillin (100 IU/mL), streptomycin (100 μg/mL) and glutamine (4 mM). The normal cell line, MCF-10A was cultured in DMEM:F12 (1:1) cell culture media, 5% heat inactivated horse serum, supplemented with penicillin (50 IU/mL), streptomycin (50 μg/mL), 20mM Hepes, L-glutamine (2 mM), epidermal growth factor (20 ng/mL), hydrocortisone (500 ng/mL), cholera toxin (100 ng/mL) and insulin (10 μg/mL).
(§4) Cells in logarithmic growth were transferred to 96-well plates. Cytotoxicity was determined by plating cells in duplicate in 100 μL medium at a density of 2500–4000 cells/well. On day 0 (24 h after plating), when the cells were in logarithmic growth, 100 μL medium, with or without the test agent, was added to each well. After 72 h drug exposure, growth inhibitory effects were evaluated using the MTT (3-[4,5-dimethylthiazol-2-yl]-2,5-diphenyltetrazolium bromide) assay and absorbance read at 540 nm. Percentage growth inhibition was determined at a fixed drug concentration of 25 μM. A value of 100% was indicative of complete cell growth inhibition. Those analogues showing appreciable percentage growth inhibition underwent further dose-response analysis allowing for the calculation of a GI50 value. This value is the drug concentration at which cell growth is 50% inhibited based on the difference between the optical density values on day 0 and those at the end of drug exposure.
Background: Tetrazolium assays rely on reduction of a dye to a coloured formazan, in cell work by metabolically active cells.

Data set [2] deals with RT-112 (minimum-invasive bladder) cancer cells. The data set can be described thus: MTT cytotoxicity assay, RT-112. Type of data set: cell-based, human. Particulars: RT-112 cells, 72 h, ± standard error, read-out: Growth Inhibition Concentration, GI50. The procedure: as §1
(§5) The inhibitory effect of the synthesised compounds on the growth of bladder (EJ-28 and RT-112) cancer cells was evaluated by MTT assay. […] RT-112 and EJ-28, human bladder cancer cell lines used in this study (ATCC, Manassas, VA, USA) were cultured in RPMI-1640 (High glucose) medium supplemented with 10% fetal bovine serum containing 1% penicillin. The cells were cultured at 37 °C in a humidified atmosphere of 5% CO2 in air. Cells were seeded in 96-well plates at 6000 cells per well for 24 h, then they were treated with different concentrations of compounds for 72 h. The medium was subsequently removed and the wells were washed with 200 µL of phosphate buffer saline. Aliquots of 20 µL of 3-(4,5-dimethylthiazol-2-yl)-2,5-diphenyltetrazolium bromide (MTT) was added to each well and incubated for 4 h at 37 °C. Aliquots of 200 µL of media was then removed from each well and 200 µL of DMSO was added. Optical density (OD) was measured using an ELISA plate reader at 570 nm. Control wells (100% viability), containing media and DMSO, were included in all the experiments. All data points represented an average of triplicate assays. Cytotoxicity was expressed as CD50, i.e., the concentration that reduced the absorbance of treated cells by 50% with reference to the control (untreated cells).

Data set [3] relates to BE2-C (neuroblastoma) cancer cells. Kind of data set: MTT growth inhibition assay, BE2-C. Type of data set: cell-based. Particulars: 72 h, ± standard error, read-out: Growth Inhibition Concentration, GI50. The protocol: as §1, §2, §3, §4
Data set [4] relates to SJ-G2 (glioblastoma) cancer cells. Kind of data set: MTT growth inhibition assay, SJ-G2. Particulars: MTT, 72 h, ± standard error, read-out: Growth Inhibition Concentration, GI50. Type of data set: cell-based. The procedure: as §1, §2, §3, §4
The subject of a further data set is A431 (skin) cancer cells. Kind of data set: MTT growth inhibition assay, A431. Type of data set: cell-based. Particulars: ± standard error, read-out: Growth Inhibition Concentration, GI50. The protocol:
as §1, §2, §3, §4

A further data set relates to H460 (lung) cancer cells. Kind of data set: MTT growth inhibition assay, H460. The data set is classed as cell-based. Particulars: ± standard error, read-out: Growth Inhibition Concentration, GI50. The procedure: as §1, §2, §3, §4
Data set [5] deals with U87 (glioblastoma) cancer cells. The data set can be described thus: MTT growth inhibition assay, U87. The conditions noted are these: 72 h, ± standard error, read-out: Growth Inhibition Concentration, GI50. The data set is classed as cell-based. The protocol:
as §1, §2, §3, §4

Data set [6] concerns Du145 (prostate) cancer cells. Kind of data set: MTT growth inhibition assay, Du145. Type of data set: cell-based. Particulars: ± standard error, read-out: Growth Inhibition Concentration, GI50. The procedure:
as §1, §2, §3, §4

The subject of data set [7] is MCF-7 (breast) cancer cells. Kind of data set: MTT growth inhibition assay, MCF-7. The data set is classed as cell-based. Particulars: 72 h, ± standard error, read-out: Growth Inhibition Concentration, GI50. The procedure:
as §1, §2, §3, §4

The subject of data set [8] is MIA (pancreatic) cancer cells. Kind of data set: MTT growth inhibition assay, MIA. Particulars: 72 h, ± standard error, read-out: Growth Inhibition Concentration, GI50. The data set is classed as cell-based. The protocol: as §1, §2, §3, §4
The test system of data set [9] is B-DNA (PDB ID: 1BNA) dodecamer d(CGCGAATTCGCG)2. The arrangement: method as in PMID 27649452. Particulars: comparison value for cisplatin; cited from earlier work.
For data set [10], the system named is HT29 (colon) cancer cells. The data set can be described thus: MTT growth inhibition assay, HT29. Type of data set: cell-based. The conditions noted are these: ± standard error, read-out: Growth Inhibition Concentration, GI50. The protocol:
as §1, §2, §3, §4

The subject of data set [11] is EJ-28 (muscle invasive bladder) cancer cells. Kind of data set: MTT cytotoxicity assay, EJ-28. The conditions noted are these: EJ-28 cells, 72 h, ± standard error, read-out: Growth Inhibition Concentration, GI50. The data set is classed as cell-based, human. The protocol:
as §1, §5

The subject of data set [12] is MCF-10A (normal breast) cell line. Kind of data set: MTT growth inhibition assay, MCF10A. The data set is classed as cell-based. Particulars: Homo sapiens, MCF-10A, MCF10A normal breast cells, 72 h, ± standard error, read-out: Growth Inhibition Concentration, GI50. The protocol: as §1, §2, §3, §4
Setting [13] is: Homo sapiens, MCF7, MCF-7 cells.

Structures are written as SMILES. Read-outs that look alike come from different tables or passages of the source.

In the case of `N.N.[Cl][Pt][Cl]` [Cisplatin, reference compound], the GI50 in data set [1] is 1 ± 0.1 µM; in data set [2], 3.56 ± 0.88 µM; in data set [3], 1900 ± 200 nM; in [4], 400 ± 100 nM; with A431 (skin) cancer cells (72 h), 2.4 ± 0.3 µM; with H460 (lung) cancer cells (72 h), 0.9 ± 0.2 µM. Further, the GI50 in [5] is 4 ± 1 µM; in [6] (72 h), 1.2 ± 0.1 µM; in [7] (MCF-7 cells) it was 6.5 ± 0.8 µM; in [8], 8 ± 1 µM; in data set [10] (72 h) it was 11 ± 2 µM; in data set [11], 3.97 ± 0.48 µM. Besides, the “lowest binding energy (docking with DNA)” value in data set [9] was -8.65 kcal/mol.

The compound `COc1cccc(/C=N/NC(=S)SCc2ccccc2)c1O` [SBoVaH, S-Benzyl-β-N-(2-hydroxy-3-methoxybenzylmethylene) Dithiocarbazate] displayed a melting point of 173 to 174 °C. In data set [1] (Homo sapiens), the GI50 turned out to be 3 ± 0.06 µM. The GI50 in data set [2] (Homo sapiens) amounted to 3.7 ± 0.57 µM. Also, in data set [3] (Homo sapiens, BE(2)-C), the GI50 was determined as 2800 ± 200 nM. Moreover, in data set [4], the GI50 worked out at 2400 ± 260 nM. Moreover, the GI50 in data set [12] was determined as 3 ± 0.07 µM. Also, the GI50 with A431 (skin) cancer cells (Homo sapiens, A-431, 72 h) was determined as 3 ± 0.15 µM. The GI50 with H460 (lung) cancer cells (Homo sapiens, NCI-H460, 72 h) came to 3.3 ± 0.21 µM. Further, the GI50 in data set [5] (Homo sapiens, U-87 MG) came to 3.1 ± 0.26 µM. Also, the GI50 in [6] (Homo sapiens, DU-145, 72 h) came to 3.4 ± 0.3 µM. The GI50 in data set [7] (setting [13]) was found to be 2.5 ± 0.12 µM. In data set [8] (Pancreatic cancer cell), the GI50 amounted to 4.5 ± 0.25 µM. The GI50 in data set [10] (Homo sapiens, HT-29, 72 h) worked out at 2.2 ± 0.033 µM. Moreover, in [11] (Homo sapiens), the GI50 amounted to 3.1 ± 0.2 µM.

As for `COc1cccc(/C=N/NC(=S)SCc2ccc(C)cc2)c1O` [S4MoVaH, S-4-Methybenzyl-β-N-(2-hydroxy-3-methoxybenzylmethylene)dithiocarbazate], the melting point is 177 to 178 °C. In [1] (Homo sapiens), the GI50 amounted to 3.1 ± 0.4 µM. In data set [2] (Homo sapiens), the GI50 worked out at 3.2 ± 0.51 µM. The GI50 in [3] (Homo sapiens, BE(2)-C) was 3600 ± 270 nM. Besides, the GI50 in data set [4] was 3300 ± 870 nM. Besides, the GI50 in [12] amounted to 3.5 ± 0.23 µM. Moreover, the GI50 with A431 (skin) cancer cells (Homo sapiens, A-431, 72 h) is 4.2 ± 0.74 µM. Besides, the GI50 in the data set on H460 (lung) cancer cells (Homo sapiens, NCI-H460, 72 h) worked out at 5.5 ± 0.73 µM. In data set [5] (Homo sapiens, U-87 MG), the GI50 was determined as 3.9 µM. Moreover, the GI50 in [6] (Homo sapiens, DU-145, 72 h) turned out to be 5.4 ± 0.23 µM. Besides, the GI50 in [7] (setting [13]) worked out at 3.5 µM. For the same compound, the GI50 in data set [8] (Pancreatic cancer cell) amounted to 11 ± 2.3 µM. The GI50 in data set [10] (Homo sapiens, HT-29, 72 h) came to 8 ± 3.5 µM. Moreover, in data set [11] (Homo sapiens), the GI50 was 3.6 ± 0.44 µM.

`COc1cccc(/C=N/NC(=S)SCc2ccccc2C)c1O` [S2MoVaH, S-2-Methybenzyl-β-N-(2-hydroxy-3-methoxybenzylmethylene) Dithiocarbazate] had a melting point of 180 to 183 °C. In [1] (Homo sapiens), the GI50 turned out to be 3.2 ± 0.15 µM. Further, the GI50 in data set [2] (Homo sapiens) is 4.6 ± 0.45 µM. Moreover, the GI50 in data set [3] (Homo sapiens, BE(2)-C) is 3100 nM. In addition, the GI50 in data set [4] is 3000 ± 90 nM. Further, the GI50 in data set [12] amounted to 3.1 ± 0.07 µM. The GI50 with A431 (skin) cancer cells (Homo sapiens, A-431, 72 h) was 3.8 ± 0.03 µM. Also, the GI50 with H460 (lung) cancer cells (Homo sapiens, NCI-H460, 72 h) turned out to be 4.3 ± 0.12 µM. In data set [5] (Homo sapiens, U-87 MG), the GI50 is 4.3 ± 0.3 µM. Also, in data set [6] (Homo sapiens, DU-145, 72 h), the GI50 came to 4.1 ± 0.09 µM. Further, in data set [7] (setting [13]), the GI50 was determined as 2.7 ± 0.21 µM. Moreover, in data set [8] (Pancreatic cancer cell), the GI50 was 4.9 ± 0.37 µM. Moreover, the GI50 in data set [10] (Homo sapiens, HT-29, 72 h) came out at 3.9 ± 0.71 µM. Also, the GI50 in data set [11] (Homo sapiens) came to 3.4 ± 0.47 µM.

A word on the melting point: it is the temperature of the solid-liquid transition.
